Measurements published in ChEMBL document CHEMBL4342421, “Current scenario of tetrazole hybrids for antibacterial activity” (Eur J Med Chem, 2019).
In brackets after ≈: the same amount, converted by molar mass.

What was measured:
Bacillus subtilis [1] = assay: Antimicrobial activity against Bacillus subtilis NCIM 2250 after 48 hrs by NCCLS protocol based method; format: functional; conditions: NCIM 2250, 48 h
Escherichia coli [2] = assay: Antimicrobial activity against Escherichia coli ATCC 25922 after 48 hrs by NCCLS protocol based method; format: functional; conditions: ATCC 25922, 48 h
Aspergillus niger [3] = assay: Antifungal activity against Aspergillus niger NCIM 545 after 48 hrs by NCCLS protocol based method; format: functional; conditions: NCIM 545, 48 h
Candida albicans [4] = assay: Antifungal activity against Candida albicans MTCC 277 after 48 hrs by NCCLS protocol based method; format: functional; conditions: MTCC 277, 48 h
Staphylococcus aureus [5] = assay: Antimicrobial activity against Staphylococcus aureus ATCC 25923 assessed as zone of inhibition at 100 ug/ml after 24 hrs by disc diffusion method; format: functional; conditions: ATCC 25923, 24 h, read-out: IZ
Klebsiella pneumoniae = assay: Antimicrobial activity against Klebsiella pneumoniae ATCC 700603 assessed as zone of inhibition at 100 ug/ml after 24 hrs by disc diffusion method; format: functional; conditions: ATCC 700603, 24 h, read-out: IZ
Streptococcus agalactiae = assay: Antimicrobial activity against Streptococcus agalactiae 55118 assessed as zone of inhibition at 100 ug/ml after 24 hrs by disc diffusion method; format: functional; conditions: Streptococcus agalactiae, 55118, 24 h; read-out: IZ
Escherichia coli [6] = assay: Antimicrobial activity against Escherichia coli; format: functional
Bacillus subtilis [7] = assay: Antimicrobial activity against Bacillus subtilis; format: functional
Salmonella typhimurium = assay: Antimicrobial activity against Salmonella typhimurium; format: functional, Salmonella enterica subsp. enterica serovar Typhimurium; conditions: Salmonella enterica
Priestia megaterium = assay: Antimicrobial activity against Bacillus megaterium; format: functional
Micrococcus luteus = assay: Antibacterial activity against Micrococcus luteus; format: functional
SiHa = assay: Growth inhibition of human SiHa cells; format: functional
MDA-MB-231 = assay: Growth inhibition of human MDA-MB-231 cells; format: functional
PANC-1 = assay: Growth inhibition of human PANC1 cells; format: functional
Escherichia coli [8] = assay: Antimicrobial activity against Escherichia coli assessed as zone of inhibition at 50 ug/ml; format: functional; conditions: read-out: IZ
Staphylococcus aureus [9] = assay: Antimicrobial activity against Staphylococcus aureus assessed as zone of inhibition at 50 ug/ml; format: functional; conditions: read-out: IZ
Aspergillus niger [10] = assay: Antifungal activity against Aspergillus niger assessed as zone of inhibition at 50 ug/ml; format: functional; conditions: read-out: IZ
Candida albicans [11] = assay: Antifungal activity against Candida albicans assessed as zone of inhibition at 50 ug/ml; format: functional; conditions: read-out: IZ

## CCOC(=O)C(C#N)C(c1cc2ccccc2n2nnnc12)P(=O)(OCC)OCC (stereo not given)
Bacillus subtilis [1]
  MIC: 10 to 20 µg/mL (≈ 23.2 to 46.4 µM)
Escherichia coli [2]
  MIC: 10 to 20 µg/mL (≈ 23.2 to 46.4 µM)
Aspergillus niger [3]
  MIC: 10 to 20 µg/mL (≈ 23.2 to 46.4 µM)
Candida albicans [4]
  MIC: 10 to 20 µg/mL (≈ 23.2 to 46.4 µM)

## COc1nc(N)nc(OC)c1Sc1nnnn1Cc1ccccc1
Staphylococcus aureus [5]
  zone of inhibition at 100 µg/mL: 10 to 24 mm
Klebsiella pneumoniae
  zone of inhibition at 100 µg/mL: 10 to 24 mm
Streptococcus agalactiae
  zone of inhibition at 100 µg/mL: 10 to 24 mm

## CCOC(=O)C(C#N)C(c1cc2c(C)cccc2n2nnnc12)P(=O)(OCC)OCC (stereo not given)
Bacillus subtilis [1]
  MIC: 10 to 20 µg/mL (≈ 22.5 to 44.9 µM)
Escherichia coli [2]
  MIC: 10 to 20 µg/mL (≈ 22.5 to 44.9 µM)
Aspergillus niger [3]
  MIC: 10 to 20 µg/mL (≈ 22.5 to 44.9 µM)
Candida albicans [4]
  MIC: 10 to 20 µg/mL (≈ 22.5 to 44.9 µM)

## COc1nc(N)nc(OC)c1Sc1nnnn1CC1CCCCC1
Staphylococcus aureus [5]
  zone of inhibition at 100 µg/mL: 10 to 24 mm
Klebsiella pneumoniae
  zone of inhibition at 100 µg/mL: 10 to 24 mm
Streptococcus agalactiae
  zone of inhibition at 100 µg/mL: 10 to 24 mm

## COc1cc(-n2nnnc2SCCC(=O)N2CCN(c3cc4c(cc3F)c(=O)c(C(=O)O)cn4C3CC3)CC2)cc(OC)c1OC
Escherichia coli [6]
  MIC: 15.6 µg/mL (≈ 23.9 µM)
Bacillus subtilis [7]
  MIC: 15.6 µg/mL (≈ 23.9 µM)
Salmonella typhimurium
  MIC: 15.6 µg/mL (≈ 23.9 µM)
Priestia megaterium
  MIC: 15.6 µg/mL (≈ 23.9 µM)
Micrococcus luteus
  MIC: 15.6 µg/mL (≈ 23.9 µM)
SiHa
  GI50: ≤ 1000 nM
MDA-MB-231
  GI50: ≤ 1000 nM
PANC-1
  GI50: ≤ 1000 nM

## O=C(O)c1cn(C2CC2)c2cc(N3CCN(C(=O)CCSc4nnnn4-c4ccc(C(F)(F)F)cc4)CC3)c(F)cc2c1=O
Escherichia coli [6]
  MIC: 15.6 µg/mL (≈ 24.7 µM)
Bacillus subtilis [7]
  MIC: 15.6 µg/mL (≈ 24.7 µM)
Salmonella typhimurium
  MIC: 15.6 µg/mL (≈ 24.7 µM)
Priestia megaterium
  MIC: 15.6 µg/mL (≈ 24.7 µM)
Micrococcus luteus
  MIC: 15.6 µg/mL (≈ 24.7 µM)
SiHa
  GI50: ≤ 1000 nM
MDA-MB-231
  GI50: ≤ 1000 nM
PANC-1
  GI50: ≤ 1000 nM

## COC1=CC(=O)C[C@@H](C)[C@]12Oc1c(Cl)c(OC)cc(OC)c1C2=O [GRISEOFULVIN]
Escherichia coli [8]
  zone of inhibition at 50 µg/mL: 21 to 24 mm
Staphylococcus aureus [9]
  zone of inhibition at 50 µg/mL: 21 to 24 mm
Aspergillus niger [10]
  zone of inhibition at 50 µg/mL: 21 to 24 mm
Candida albicans [11]
  zone of inhibition at 50 µg/mL: 21 to 24 mm
Bacillus subtilis [1]
  MIC: 10 µg/mL (≈ 28.3 µM)
Escherichia coli [2]
  MIC: 10 µg/mL (≈ 28.3 µM)
Aspergillus niger [3]
  MIC: 10 µg/mL (≈ 28.3 µM)
Candida albicans [4]
  MIC: 10 µg/mL (≈ 28.3 µM)

## CCn1cc(C(=O)O)c(=O)c2cnc(N3CCN(C(=O)CCSc4nnnn4-c4ccc(Br)cc4)CC3)nc21
SiHa
  GI50: 70 to 220 nM
MDA-MB-231
  GI50: 70 to 220 nM
PANC-1
  GI50: 70 to 220 nM

## O=C(/C=C/c1ccc(Cl)cc1)n1nnnc1-c1ccccc1
Escherichia coli [8]
  zone of inhibition at 50 µg/mL: 8 to 15 mm
Staphylococcus aureus [9]
  zone of inhibition at 50 µg/mL: 8 to 15 mm
Aspergillus niger [10]
  zone of inhibition at 50 µg/mL: 8 to 15 mm
Candida albicans [11]
  zone of inhibition at 50 µg/mL: 8 to 15 mm
